Like-named read-outs stand apart in the source and are kept apart here. Each block holds one compound with its values, some of them ahead of it.
Columns and labels:
Assay type in all cases: biochemical
CDK2/CCNE1 = CDK2/CCNE1 (Homo sapiens, UniProt P24941); assay: CDK2 homogeneous time-resolved fluorescence (HTRF) kinase assay
Summary of the method: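 IC50 derived from 11-point, half-log dilutions (usually top 10 μM) of compound, 1% DMSO. Kinase (3 nM CDK2/CCNE1) was preincubated with compound 20 min, then phosphorylated 50 nM ULight-4E-BP1 peptide at 1 mM ATP for 60 min, 23 °C. Europium-antibody TR-FRET read after EDTA stop.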

CDK1/CCNB1 = CDK1/CCNB1 (Homo sapiens, UniProt P06493); assay: CDK1 homogeneous time-resolved fluorescence (HTRF) kinase assay
Chain of CDK1/CCNB1 (P06493 whole entry): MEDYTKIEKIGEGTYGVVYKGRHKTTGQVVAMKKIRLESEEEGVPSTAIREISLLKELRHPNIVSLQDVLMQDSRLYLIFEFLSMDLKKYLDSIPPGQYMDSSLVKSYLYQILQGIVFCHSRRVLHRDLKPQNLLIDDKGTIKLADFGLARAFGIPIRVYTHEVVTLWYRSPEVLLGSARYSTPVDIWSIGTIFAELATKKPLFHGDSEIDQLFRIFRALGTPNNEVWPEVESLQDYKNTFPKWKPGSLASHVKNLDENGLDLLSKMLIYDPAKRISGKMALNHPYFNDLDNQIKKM
Chain of CDK1/CCNB1 (P14635 whole entry partner): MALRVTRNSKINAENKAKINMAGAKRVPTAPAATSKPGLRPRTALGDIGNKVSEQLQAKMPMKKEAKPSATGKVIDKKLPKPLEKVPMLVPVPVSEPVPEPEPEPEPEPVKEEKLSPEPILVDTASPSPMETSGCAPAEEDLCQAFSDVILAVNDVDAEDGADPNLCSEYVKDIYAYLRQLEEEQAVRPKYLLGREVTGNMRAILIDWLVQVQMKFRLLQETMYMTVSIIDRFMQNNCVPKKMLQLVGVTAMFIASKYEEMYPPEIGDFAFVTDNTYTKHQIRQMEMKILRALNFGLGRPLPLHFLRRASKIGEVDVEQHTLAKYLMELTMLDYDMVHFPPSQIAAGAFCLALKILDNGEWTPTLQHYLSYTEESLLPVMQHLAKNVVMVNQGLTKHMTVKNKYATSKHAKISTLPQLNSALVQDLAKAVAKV
Summary of the method: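 High-ATP (1 mM) HTRF assay with 0.5 nM CDK1/cyclin B1 and 50 nM ULight-4E-BP1 (Thr37/46) substrate, 60 min at 23 °C after 20-min compound preincubation. IC50 values come from dose-response curves.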

CDK4/CCND3 = CDK4/CCND3 (Homo sapiens, UniProt P11802); assay: CDK4 homogeneous time-resolved fluorescence (HTRF) kinase assay
Chain of CDK4/CCND3 (P11802 whole entry): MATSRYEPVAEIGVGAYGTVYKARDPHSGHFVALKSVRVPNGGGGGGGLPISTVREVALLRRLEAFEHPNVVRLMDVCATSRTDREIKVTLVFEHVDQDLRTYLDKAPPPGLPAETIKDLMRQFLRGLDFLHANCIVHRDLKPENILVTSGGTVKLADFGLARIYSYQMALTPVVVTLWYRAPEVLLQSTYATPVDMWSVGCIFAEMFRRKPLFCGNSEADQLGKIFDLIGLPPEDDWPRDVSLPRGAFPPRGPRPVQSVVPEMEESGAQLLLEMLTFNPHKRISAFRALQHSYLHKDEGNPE
Chain of CDK4/CCND3 (P30281 whole entry partner): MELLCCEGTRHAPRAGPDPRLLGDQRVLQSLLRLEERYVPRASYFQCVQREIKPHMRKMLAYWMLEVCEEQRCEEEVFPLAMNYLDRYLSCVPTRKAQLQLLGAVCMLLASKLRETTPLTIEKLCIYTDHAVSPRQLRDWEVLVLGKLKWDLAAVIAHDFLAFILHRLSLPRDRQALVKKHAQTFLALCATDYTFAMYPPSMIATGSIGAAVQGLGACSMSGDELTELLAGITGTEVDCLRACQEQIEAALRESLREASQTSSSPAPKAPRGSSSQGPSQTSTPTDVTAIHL
Summary of the method: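 TR-FRET read (665 nm, or 665/615 ratio) of 4E-BP1 Thr37/46 phosphorylation by 1.5 nM CDK4/CCND3 at 1 mM ATP, 50 nM ULight peptide, 1% DMSO. Reaction ran 60 min at 23 °C after 20 min compound–enzyme preincubation. IC50 from 11-point half-log dilutions, top 10 μM.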

CDK6/CCND1 = CDK6/CCND1 (Homo sapiens, UniProt Q00534); assay: CDK6 homogeneous time-resolved fluorescence (HTRF) kinase assay
Chain of CDK6/CCND1 (Q00534 whole entry): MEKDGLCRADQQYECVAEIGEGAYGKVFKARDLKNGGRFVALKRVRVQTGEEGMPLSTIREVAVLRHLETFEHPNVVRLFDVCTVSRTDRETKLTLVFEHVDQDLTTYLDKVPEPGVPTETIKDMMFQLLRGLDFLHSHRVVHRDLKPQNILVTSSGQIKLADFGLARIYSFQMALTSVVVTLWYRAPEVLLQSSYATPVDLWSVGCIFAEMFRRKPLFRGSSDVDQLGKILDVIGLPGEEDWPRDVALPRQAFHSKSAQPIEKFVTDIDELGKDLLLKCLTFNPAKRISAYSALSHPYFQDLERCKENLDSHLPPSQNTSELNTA
Chain of CDK6/CCND1 (P24385 whole entry partner): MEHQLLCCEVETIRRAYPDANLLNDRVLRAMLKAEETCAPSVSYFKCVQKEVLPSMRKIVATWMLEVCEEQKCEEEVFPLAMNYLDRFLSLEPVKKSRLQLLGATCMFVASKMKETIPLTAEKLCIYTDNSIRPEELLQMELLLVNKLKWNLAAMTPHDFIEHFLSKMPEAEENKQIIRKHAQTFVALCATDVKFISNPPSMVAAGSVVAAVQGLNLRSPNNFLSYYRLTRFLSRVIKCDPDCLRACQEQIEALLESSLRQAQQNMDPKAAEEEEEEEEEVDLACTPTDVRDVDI
Summary of the method: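 Assay conditions: HEPES buffer containing 10 mM MgCl2, 1 mM EGTA, 2 mM DTT, 0.01% Tween 20; 1 nM CDK6/CCND1, 50 nM peptide substrate, 1 mM ATP. Detection after 60 min reaction used 2 nM europium antibody with 340 nm excitation. Potency fitted from half-log series, 11 points.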

[1] = CDK2/CCNE, x = IC50 25-250 nM, read-out: CDK2/CCNE IC50 (25-250 nM)
[2] = CDK1/CCNB, x = IC50 >250 nM, read-out: CDK1/CCNB IC50 (>250 nM column)
[3] = CDK4/CCND, x = IC50 >250 nM, read-out: CDK4/CCND IC50 (>250 nM column)
[4] = CDK6/CCND, x = IC50 >250 nM, read-out: CDK6/CCND IC50 (>250 nM column)
[5] = <25 nM, CDK2/CCNE, read-out: CDK2/CCNE IC50, <25 nM
[6] = >250 nM, CDK1/CCNB, read-out: CDK1/CCNB IC50 >250 nM
[7] = >250 nM, CDK4/CCND, read-out: CDK4/CCND IC50, >250 nM
[8] = >250 nM, CDK6/CCND, 1 mM ATP, read-out: CDK6/CCND IC50, >250 nM
[9] = 25-250 nM, CDK2/CCNE, read-out: CDK2/CCNE IC50, 25-250 nM
[10] = 25-250 nM, CDK6/CCND, 1 mM ATP, read-out: CDK6/CCND IC50, 25-250 nM
[11] = CDK2/CCNE, x = IC50 <25 nM, read-out: CDK2/CCNE IC50 (<25 nM)
[12] = CDK6/CCND, x = IC50 25-250 nM, read-out: CDK6/CCND IC50 (25-250 nM)
[13] = CDK1/CCNB, x = IC50 25-250 nM, read-out: CDK1/CCNB IC50 (25-250 nM)

Compound: CS(=O)(=O)c1ccc(Nc2cc3c(C#Cc4cccnc4N)nccc3cn2)nc1 [Ex 419, 5-((2-aminopyridin-3-yl)ethynyl)-N-(5-(methylsulfonyl)pyridin-2-yl)-2,6-naphthyridin-3-amine]
- IC50 (CDK2/CCNE1; [1]): 0.025 to 0.25 µM
- IC50 (CDK1/CCNB1; [2]): > 0.25 µM
- IC50 (CDK4/CCND3; [3]): > 0.25 µM
- IC50 (CDK6/CCND1; [4]): > 0.25 µM

Compound: N#Cc1ccc(C#Cc2nccc3cnc(Nc4ccc(S(=O)(=O)CCN5CCOCC5)cc4)cc23)cc1 [Example 661, 4-((7-((4-((2-morpholinoethyl)sulfonyl)phenyl)amino)-2,6-naphthyridin-1-yl)ethynyl)benzonitrile]
- IC50 (CDK2/CCNE1; [1]): 0.025 to 0.25 µM
- IC50 (CDK1/CCNB1; [2]): > 0.25 µM
- IC50 (CDK4/CCND3; [3]): > 0.25 µM
- IC50 (CDK6/CCND1; [4]): > 0.25 µM

Compound: COCCNC(=O)[C@H]1CC[C@H](c2nccc3cnc(Nc4ccc(S(C)(=O)=O)cc4)cc32)CC1 [Ex 199, (1r,4r)-N-(2-methoxyethyl)-4-(7-((4-(methylsulfonyl)phenyl)amino)-2,6-naphthyridin-1-yl)cyclohexane-1-carboxamide]
- IC50 (CDK2/CCNE1; CDK2/CCNE, 25-250 nM marked x, read-out: CDK2/CCNE IC50 25-250 nM): 0.025 to 0.25 µM
- IC50 (CDK1/CCNB1; CDK1/CCNB, >250 nM marked x, read-out: CDK1/CCNB IC50 >250 nM): > 0.25 µM
- IC50 (CDK4/CCND3; CDK4/CCND, >250 nM marked x, read-out: CDK4/CCND IC50 >250 nM): > 0.25 µM
- IC50 (CDK6/CCND1; CDK6/CCND, >250 nM marked x, read-out: CDK6/CCND IC50 >250 nM): > 0.25 µM

Compound: CS(=O)(=O)c1ccc(Nc2cc3c(C#Cc4ccc(F)nc4)nccc3cn2)cc1 [Ex 874, 5-((6-fluoropyridin-3-yl)ethynyl)-N-(4-(methylsulfonyl)phenyl)-2,6-naphthyridin-3-amine]
- IC50 (CDK2/CCNE1; [9]): 0.025 to 0.25 µM
- IC50 (CDK1/CCNB1; [6]): > 0.25 µM
- IC50 (CDK4/CCND3; [7]): > 0.25 µM
- IC50 (CDK6/CCND1; [8]): > 0.25 µM

Compound: Cc1c(-c2nccc3cnc(NC4CCN(C(=O)c5cccnc5)C4)cc23)ccc2c1cnn2CC(C)(C)O (racemic) [Ex 904, (3-((5-(1-(2-hydroxy-2-methylpropyl)-4-methyl-1H-indazol-5-yl)-2,6-naphthyridin-3-yl)amino)pyrrolidin-1-yl)(pyridin-3-yl)methanone]
- IC50 (CDK2/CCNE1; [9]): 0.025 to 0.25 µM
- IC50 (CDK1/CCNB1; [6]): > 0.25 µM
- IC50 (CDK4/CCND3; [7]): > 0.25 µM
- IC50 (CDK6/CCND1; [8]): > 0.25 µM

Compound: CS(=O)(=O)c1ccc(Nc2cc3c(C#Cc4ccc(Cl)cn4)nccc3cn2)cc1 [Example 544, 5-((5-chloropyridin-2-yl)ethynyl)-N-(4-(methylsulfonyl)phenyl)-2,6-naphthyridin-3-amine]
- IC50 (CDK2/CCNE1; CDK2/CCNE, x = IC50 >250 nM, read-out: CDK2/CCNE IC50 (>250 nM column)): > 0.25 µM
- IC50 (CDK1/CCNB1; [2]): > 0.25 µM
- IC50 (CDK4/CCND3; [3]): > 0.25 µM
- IC50 (CDK6/CCND1; [4]): > 0.25 µM

Compound: Cc1c(-c2nccc3cnc(Nc4cnc(O)c(N5CCN(CCO)CC5)c4)cc23)ccc2c1cnn2CC(C)(C)O [Example 887, 5-((5-(1-(2-hydroxy-2-methylpropyl)-4-methyl-1H-indazol-5-yl)-2,6-naphthyridin-3-yl)amino)-3-(4-(2-hydroxyethyl)piperazin-1-yl)pyridin-2-ol]
- IC50 (CDK2/CCNE1; [5]): < 0.025 µM
- IC50 (CDK1/CCNB1; [6]): > 0.25 µM
- IC50 (CDK4/CCND3; [7]): > 0.25 µM
- IC50 (CDK6/CCND1; [8]): > 0.25 µM

Compound: COC(=O)c1n[nH]c2cc(-c3nccc4cnc(Nc5ccc(S(C)(=O)=O)cc5)cc34)ccc12 [Ex 605, methyl 6-(7-((4-(methylsulfonyl)phenyl)amino)-2,6-naphthyridin-1-yl)-1H-indazole-3-carboxylate]
- IC50 (CDK2/CCNE1; [11]): < 0.025 µM
- IC50 (CDK1/CCNB1; [2]): > 0.25 µM
- IC50 (CDK4/CCND3; [3]): > 0.25 µM
- IC50 (CDK6/CCND1; [12]): 0.025 to 0.25 µM

Compound: CS(=N)(=O)c1ccc(Nc2cc3c(C#Cc4ccc5oc(=O)[nH]c5c4)nccc3cn2)cc1 (single isomer, unassigned) [Example 483, 5-((7-((4-(S-methylsulfonimidoyl)phenyl)amino)-2,6-naphthyridin-1-yl)ethynyl)benzo[d]oxazol-2(3H)-one]
- IC50 (CDK2/CCNE1; [11]): < 0.025 µM
- IC50 (CDK1/CCNB1; [13]): 0.025 to 0.25 µM
- IC50 (CDK4/CCND3; CDK4/CCND, x = IC50 25-250 nM, read-out: CDK4/CCND IC50 (25-250 nM)): 0.025 to 0.25 µM
- IC50 (CDK6/CCND1; [12]): 0.025 to 0.25 µM

Compound: CS(=O)(=O)c1ccc(Nc2ncc3ccnc(C#Cc4ccc(C#N)cc4)c3n2)cc1 [Example 949, 4-((2-((4-(methylsulfonyl)phenyl)amino)pyrido[3,4-d]pyrimidin-8-yl)ethynyl)benzonitrile]
- IC50 (CDK2/CCNE1; 3 nM CDK2/CCNE1, 1 mM ATP, read-out: CDK2/CCNE IC50 >250 nM): > 0.25 µM
- IC50 (CDK1/CCNB1; 0.5 nM CDK1/CCNB1, 1 mM ATP, read-out: CDK1/CCNB IC50 >250 nM): > 0.25 µM
- IC50 (CDK4/CCND3; 1.5 nM CDK4/CCND3, 1 mM ATP, read-out: CDK4/CCND IC50 >250 nM): > 0.25 µM
- IC50 (CDK6/CCND1; 1 nM CDK6/CCND1, 1 mM ATP, read-out: CDK6/CCND IC50 >250 nM): > 0.25 µM

Compound: CC(C)(O)Cn1ncc2c(C#Cc3nccc4cnc(Nc5ccc(S(C)(=O)=O)cc5)cc34)cncc21 [Ex 562, 2-methyl-1-(4-((7-((4-(methylsulfonyl)phenyl)amino)-2,6-naphthyridin-1-yl)ethynyl)-1H-pyrazolo[3,4-c]pyridin-1-yl)propan-2-ol]
- IC50 (CDK2/CCNE1; [1]): 0.025 to 0.25 µM
- IC50 (CDK1/CCNB1; [2]): > 0.25 µM
- IC50 (CDK4/CCND3; [3]): > 0.25 µM
- IC50 (CDK6/CCND1; [4]): > 0.25 µM

The next lines start with the values.

- IC50 (CDK2/CCNE1; [5]): < 0.025 µM
- IC50 (CDK1/CCNB1; [6]): > 0.25 µM
- IC50 (CDK4/CCND3; [7]): > 0.25 µM
- IC50 (CDK6/CCND1; [8]): > 0.25 µM
Compound: Cc1c(-c2nccc3cnc(Nc4ccc(S(=O)(=O)Nc5nccc(C(F)(F)F)n5)cc4)cc23)ccc2c1cnn2CC(C)(C)O [Ex 907, 4-((5-(1-(2-hydroxy-2-methylpropyl)-4-methyl-1H-indazol-5-yl)-2,6-naphthyridin-3-yl)amino)-N-(4-(trifluoromethyl)pyrimidin-2-yl)benzenesulfonamide]

- IC50 (CDK2/CCNE1; [5]): < 0.025 µM
- IC50 (CDK1/CCNB1; [6]): > 0.25 µM
- IC50 (CDK4/CCND3; [7]): > 0.25 µM
- IC50 (CDK6/CCND1; [10]): 0.025 to 0.25 µM
Compound: CCN(c1ncccn1)S(=O)(=O)c1ccc(Nc2cc3c(-c4ccc5c(cnn5CC(C)(C)O)c4C)nccc3cn2)cc1 [Example 733, N-ethyl-4-((5-(1-(2-hydroxy-2-methylpropyl)-4-methyl-1H-indazol-5-yl)-2,6-naphthyridin-3-yl)amino)-N-(pyrimidin-2-yl)benzenesulfonamide]

- IC50 (CDK2/CCNE1; [5]): < 0.025 µM
- IC50 (CDK1/CCNB1; [6]): > 0.25 µM
- IC50 (CDK4/CCND3; [7]): > 0.25 µM
- IC50 (CDK6/CCND1; [8]): > 0.25 µM
Compound: Cc1cc(Nc2cc3c(-c4ccc5c(cnn5CC(C)(C)O)c4C)nccc3cn2)ccc1S(C)(=O)=O [Ex 836, 2-methyl-1-(4-methyl-5-(7-((3-methyl-4-(methylsulfonyl)phenyl)amino)-2,6-naphthyridin-1-yl)-1H-indazol-1-yl)propan-2-ol]

- IC50 (CDK2/CCNE1; [5]): < 0.025 µM
- IC50 (CDK1/CCNB1; [6]): > 0.25 µM
- IC50 (CDK4/CCND3; 25-250 nM, CDK4/CCND, read-out: CDK4/CCND IC50, 25-250 nM): 0.025 to 0.25 µM
- IC50 (CDK6/CCND1; [10]): 0.025 to 0.25 µM
Compound: Cc1cc(C)nc(NS(=O)(=O)c2ccc(Nc3cc4c(-c5ccc6c(cnn6CC(C)(C)O)c5C)nccc4cn3)cc2)c1 [Ex 818, N-(4,6-dimethylpyridin-2-yl)-4-((5-(1-(2-hydroxy-2-methylpropyl)-4-methyl-1H-indazol-5-yl)-2,6-naphthyridin-3-yl)amino)benzenesulfonamide]

- IC50 (CDK2/CCNE1; [11]): < 0.025 µM
- IC50 (CDK1/CCNB1; [13]): 0.025 to 0.25 µM
- IC50 (CDK4/CCND3; CDK4/CCND, x = IC50 <25 nM, read-out: CDK4/CCND IC50 (<25 nM)): < 0.025 µM
- IC50 (CDK6/CCND1; CDK6/CCND, x = IC50 <25 nM, read-out: CDK6/CCND IC50 (<25 nM)): < 0.025 µM
Compound: Cc1c(-c2nccc3cnc(Nc4ccc(S(N)(=O)=O)cc4)cc23)ccc2c1cnn2CCO [Ex 673, 4-((5-(1-(2-hydroxyethyl)-4-methyl-1H-indazol-5-yl)-2,6-naphthyridin-3-yl)amino)benzenesulfonamide]

- IC50 (CDK2/CCNE1; [5]): < 0.025 µM
- IC50 (CDK1/CCNB1; [6]): > 0.25 µM
- IC50 (CDK4/CCND3; [7]): > 0.25 µM
- IC50 (CDK6/CCND1; [8]): > 0.25 µM
Compound: COc1cc(NS(=O)(=O)c2ccc(Nc3cc4c(-c5ccc6c(cnn6CC(C)(C)O)c5C)nccc4cn3)cc2)cc(OC)c1 [Ex 805, N-(3,5-dimethoxyphenyl)-4-((5-(1-(2-hydroxy-2-methylpropyl)-4-methyl-1H-indazol-5-yl)-2,6-naphthyridin-3-yl)amino)benzenesulfonamide]

Source: patent US20260325533A1, “CDK INHIBITOR COMPOUNDS” (ALEKSIA THERAPEUTICS, INC., priority 2023, published 2026)
